Experimental data reported in article PMC5618791, “Double quick, double click reversible peptide “stapling”” (Chemical Science, 2017).
Positions of bridges follow the written chain, without caps; N, C: chain ends. Residues, ends and D or L forms follow the SMILES beside them.

What was measured:
[1] = Circular dichroism, % helicity; assay type: physicochemical; conditions: CD, peptide 10-20 μM, calculated from MRE at 222 nm
Method: Samples were prepared in two different solvent systems (30% TFE:H2O, 30% CH3CN:water) to concentrations between 10 - 20 μM (Figure S 23). Considering the high number of hydrophobic residues in BID and S peptides, organic co-solvents were used to ensure good solubility and avoid aggregation at concentrations high enough for CD analyses. DMSO stocks of peptides were not used for CD due to its high absorbance below 230 nm.
The raw circular dichroism data obtained for the peptides was processed by the subtraction of the solvent signal and converted into a mean residue ellipticity:
Where = molar ellipticity[θ]MRE per residue, θ = circular dichroism at a given wavelength, c = molar concentration, l = path length in cm, R = number of residues in the peptide sequence.
Calculation of % helicity was performed by the following equation:[4]
Where: θH = Theoretical MRE for 100% helicity at 222 nm, θ0 = Theoretical MRE for 100% helicity at 222 nm at 0 °C = –44000, (∂θ/∂T) = temperature dependence of infinite helix = +250, T = temperature in °C, x = 3, Nr = number of residues in the peptide.
In both solvent systems, it is noteworthy that STA-peptides are more helical than RED-peptides or WT-peptides; with the exception of constrained S-Cys-peptides. The use of TFE as co-solvent in water enhances the α-helicity of both series of peptides compared to the use of acetonitrile in water. […]
thus bioactive) conformation. The S peptides show a low helix propensity which is consistent […]
Figure S 23: CD spectra A. and B. in 30% TFE:H 2O; C. and D. in 30% CH3CN:H 2O.
Table 1: Percentage of helicity in the three solvent systems […]
(also on this page, place not known: Molar residue ellipticity (deg.cm 2 .dmol -1 ) Molar residue ellipticity (deg.cm 2 .dmol -1 ) Molar residue ellipticity (deg.cm 2 .dmol -1 ) Molar residue ellipticity (deg.cm 2 .dmol -1 ) TFE:H2O; CH3CN:H2O.)

[2] = biological target: T1, RNase S protein (Bos taurus, UniProt P61823); test: RNA degradation assay, restoration of S protein activity; assay type: biochemical; conditions: EtBr-labelled RNA, S peptides 0.1-2 μM, 50 mM Tris, 100 mM NaCl, pH 7.50, 60 min, room temperature, fluorescence, triplicate
T1 construct: S protein 21-124; made in house; host or cells: proteolytic fragment of RNase A (subtilisin digestion)
T1 sequence (P61823 47-150): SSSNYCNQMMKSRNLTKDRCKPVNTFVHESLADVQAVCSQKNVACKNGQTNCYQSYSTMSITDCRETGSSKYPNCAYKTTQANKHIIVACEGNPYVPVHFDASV
Method: Fig. 5 Biophysical and bioactivity analyses of WT-S and S derived peptides 3–4a,c. (a) Circular dichroism spectra recorded in water (30% TFE); (b) RNA degradation assay showing the restoration of S protein activity. S protein was used as a negative control, and RNase A as a positive control. (50 mM Tris, 100 mM NaCl, pH 7.50).
RNase A (10 mg) in Hepes (600 µL, 100 mM; pH = 8.0) was digested by subtilisin (5 mg/mL, 10 µL) for 4 hrs at 0 °C. After which, the buffer was acidified with a solution of HCl (1 M) to reach pH = 3. The acidic solution was stirred for 1 h at 2 °C. The reaction was monitored by HPLC using the Jupiter µ Proteo 90 A analytical column using a gradient (0-60% over 30 min). […]
RNA degradation assays were performed in 96-well black plates (Greiner Bio-one). Each experiment was run in triplicate and the fluorescence was measured using a Perkin Elmer EnVisionTM 2103 MultiLabel plate reader, with an excitation and emission at 510 nm and at […]
The buffer used in this enzymatic assay was Tris buffer (50 mM of Tris, 100 mM of NaCl, pH = 7.5). The adequate quantity of buffer was first added to each well to reach a total volume of 200 µL (150 µL for controls, 149 µL for 0.1 µM of S peptides, 148 µL for 0.2 µM of S peptides, 145 µL for 0.5 µM of S peptides, 140 µL for 1 µM of S peptides, 130 µL for 2 µM of S peptides). […]

- Percentage of helicity, 30% CH3CN:H2O ([1]; 30% CH3CN:H2O): 0%
- Percentage of helicity, 30% TFE:H2O ([1]; 30% TFE:H2O): 0%
- Restoration of S protein (RNase) enzymatic activity [2]: failure to restore S protein activity
Compound: CSCC[C@H](NC(=O)[C@H](Cc1c[nH]cn1)NC(=O)[C@H](CCC(N)=O)NC(=O)[C@@H]1CSSC[C@H](NC(=O)[C@H](C)NC(=O)[C@H](C)NC(=O)[C@@H](NC(=O)[C@H](CCC(=O)O)NC(=O)[C@H](CCCCN)NC(C)=O)[C@@H](C)O)C(=O)N[C@@H](CCCCN)C(=O)N[C@@H](Cc2ccccc2)C(=O)N[C@@H](CCC(=O)O)C(=O)N1)C(=O)N[C@@H](CC(=O)O)C(=O)N[C@@H](CO)C(N)=O [2c] (Ac-KETAACKFECQHMDS-NH2; disulfide 6-10)
